In publication PMC11245519, “Ubiquitous purine sensor modulates diverse signal transduction pathways in bacteria” (Nature Communications, 2024):
Where two headings read alike, the source gives them in different places.

How the values were obtained:
R1 (WP_219614703-LBD) = R1 (WP_219614703-LBD) (Aeromonas salmonicida, UniProt T0PLV6); experiment: Microcalorimetric titration (ITC) of the R1 LBD with ligands; type: binding; conditions: for Kd: 25 °C, pH 7.0, read-out: Dissociation constant, R1
R4 (WP_199478134-LBD) [1] = type: binding, Marinomonas spartinae; conditions: ITC, 25 °C, pH 8.0; read-out: Dissociation constant, R4
R11 (WP_162024566-LBD) [2] = experiment: Microcalorimetric titration (ITC) of the R11 LBD with ligands; type: binding, Lentimonas sp. CC4; conditions: 25 °C, pH 7.0
R14 (WP_021170906-LBD) = R14 (WP_021170906-LBD) (Sporomusa ovata, UniProt A0A0U1L1T7); experiment: Microcalorimetric titration (ITC) of the R14 LBD with ligands; type: binding; conditions: for Kd: read-out: Dissociation constant, R14
R15 (WP_207952809-LBD) [3] = molecular target: T1, R15 (WP_207952809-LBD) (Paenibacillus agricola, UniProt A0ABX0IZG8); experiment: Microcalorimetric titration (ITC) of the R15 LBD with ligands; type: binding, Paenibacillus sp. S3N08; conditions: for Binding in microcalorimetric titration, R15: pH 7.0
R5 (WP_131005693-LBD) = experiment: Thermal shift assay of the R5 LBD; type: binding, Clostridioides difficile; conditions: change in Tm, threshold 2 °C
R6 (WP_185834821-LBD) [4] = molecular target: T2, R6 (WP_185834821-LBD) (Vibrio cholerae, UniProt Q9KPY8); experiment: Thermal shift assay of the R6 LBD; type: binding; conditions: change in Tm, threshold 2 °C
R10 (WP_110129388-LBD) = type: binding, Coraliomargarita sinensis; conditions: change in Tm, threshold 2 °C
R13 (WP_167859577-LBD) = type: binding, Paenibacillus cymbidii; conditions: change in Tm, threshold 2 °C; 2 mM ligand (Supplementary Fig. 7)
R8 (WP_227113344-LBD) = R8 (WP_227113344-LBD) (Eggerthella sinensis, UniProt A0ABX9HL97); experiment: Microcalorimetric titration (ITC) of the R8 LBD with ligands; type: binding; conditions: 25 °C, pH 6.0
R4 (WP_199478134-LBD) [5] = experiment: Thermal shift assay of the R4 LBD; type: binding, Marinomonas spartinae; conditions: change in Tm, threshold 2 °C
R15 (WP_207952809-LBD) [6] = molecular target: T1, R15 (WP_207952809-LBD); experiment: Thermal shift assay of the R15 LBD; type: binding, Paenibacillus sp. S3N08; conditions: change in Tm, threshold 2 °C
R6 (WP_185834821-LBD) [7] = molecular target: T2, R6 (WP_185834821-LBD); experiment: biochemical; type: binding
R11 (WP_162024566-LBD) [8] = experiment: Thermal shift assay of the R11 LBD; type: binding, Lentimonas sp. CC4; conditions: change in Tm, threshold 2 °C
[9] = tested on: R6 diguanylate cyclase (VC2224) expressed in P. putida KT2440 pCdrA::gfpC; type: cell-based
[10] = tested on: members of the family dCache_1PU (11 soluble LBDs); experiment: Thermal shift ligand screening of all dCache_1PU proteins (Biolog arrays PM3B and PM5); type: binding
[11] = ITC, One binding site model, * = hyperbolic curve

T1 sequence (A0ABX0IZG8 entry or part of it): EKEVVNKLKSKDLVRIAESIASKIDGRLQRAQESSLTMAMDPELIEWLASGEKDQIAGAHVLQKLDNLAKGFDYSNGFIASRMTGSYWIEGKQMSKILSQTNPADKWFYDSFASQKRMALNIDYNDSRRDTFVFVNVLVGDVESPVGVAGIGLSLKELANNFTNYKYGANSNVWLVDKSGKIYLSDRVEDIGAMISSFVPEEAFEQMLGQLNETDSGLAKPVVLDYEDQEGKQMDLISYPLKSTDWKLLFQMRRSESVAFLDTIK
Chain of R14 (WP_021170906-LBD) (A0A0U1L1T7 entry or part of it): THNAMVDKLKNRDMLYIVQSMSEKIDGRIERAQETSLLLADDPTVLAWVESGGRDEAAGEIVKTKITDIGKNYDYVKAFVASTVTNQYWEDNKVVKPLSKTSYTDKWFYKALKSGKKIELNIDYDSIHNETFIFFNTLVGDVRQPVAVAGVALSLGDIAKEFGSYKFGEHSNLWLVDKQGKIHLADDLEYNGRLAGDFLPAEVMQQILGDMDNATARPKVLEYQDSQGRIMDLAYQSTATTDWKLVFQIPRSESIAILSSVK

SMILES	Kd (R1 (WP_219614703-LBD); ITC)	Kd (R4 (WP_199478134-LBD) [1])	Binding in microcalorimetric titration, R11 (R11 (WP_162024566-LBD) [2])	Kd (R14 (WP_021170906-LBD); ITC, 25 °C)	Binding in microcalorimetric titration, R15 (R15 (WP_207952809-LBD) [3]; 25 °C)	Binding in thermal shift assay, R5 (R5 (WP_131005693-LBD))	Binding in thermal shift assay, R13 (R13 (WP_167859577-LBD))	Binding in thermal shift assay, R4 (R4 (WP_199478134-LBD) [5])	N value, R1 (R1 (WP_219614703-LBD); [11])	N value, R14 (R14 (WP_021170906-LBD); [11])	Shift in the thermal shift assays [10]	further results
Nc1ncnc2c1ncn2[C@@H]1O[C@H](CO)[C@@H](O)[C@H]1O [Adenosine]	1.1 ± 0.1 µM	88 ± 12 µM	Nb^a	17 ± 4.1 µM	Nb^a	Nts^b (no binding observed in thermal shift assays, i.e., compounds caused changes in the midpoint of protein unfolding (Tm) of less than 2 °C)	Nts^b (no binding observed in thermal shift assays, i.e., compounds caused changes in the midpoint of protein unfolding (Tm) of less than 2 °C)	–	–	–	–	N value, R1 (R1 (WP_219614703-LBD)): 0.13; N value, R14 (R14 (WP_021170906-LBD)): 0.41; Binding in thermal shift assay, R6 (R6 (WP_185834821-LBD) [4]): Nts^b (no binding observed in thermal shift assays, i.e., compounds caused changes in the midpoint of protein unfolding (Tm) of less than 2 °C); Binding in thermal shift assay, R10 (Supplementary Table 3) (R10 (WP_110129388-LBD); cells left empty in Table 3): Nts (No binding observed in thermal shift assays, i.e. compounds caused changes in the midpoint of protein unfolding (Tm) of less than 2 ºC)
NC(=O)NC1NC(=O)NC1=O (centres unmarked) [Allantoin]	–	–	Nb^a	–	–	Nts^b (no binding observed in thermal shift assays, i.e., compounds caused changes in the midpoint of protein unfolding (Tm) of less than 2 °C)	Nts^b (no binding observed in thermal shift assays, i.e., compounds caused changes in the midpoint of protein unfolding (Tm) of less than 2 °C)	Nts^b (no binding observed in thermal shift assays, i.e., compounds caused changes in the midpoint of protein unfolding (Tm) of less than 2 °C)	–	–	–	Binding in microcalorimetric titration, R8 (R8 (WP_227113344-LBD)): Nb^a; Binding in microcalorimetric titration, R14 (R14 (WP_021170906-LBD); ITC, 25 °C): Nb^a; Binding in thermal shift assay, R15 (R15 (WP_207952809-LBD) [6]): Nts^b (no binding observed in thermal shift assays, i.e., compounds caused changes in the midpoint of protein unfolding (Tm) of less than 2 °C)
Nc1cc[nH]c(=O)n1 [Cytosine]	1460 µM	74 ± 15 µM	Nb^a	105 ± 20 µM	Nb^a	Nts^b (no binding observed in thermal shift assays, i.e., compounds caused changes in the midpoint of protein unfolding (Tm) of less than 2 °C)	Nts^b (no binding observed in thermal shift assays, i.e., compounds caused changes in the midpoint of protein unfolding (Tm) of less than 2 °C)	–	0.21	0.46	–	–
Nc1nc2c(ncn2[C@@H]2O[C@H](CO)[C@@H](O)[C@H]2O)c(=O)[nH]1 [Guanosine]	1.2 ± 0.1 µM	–	–	25 ± 4.9 µM	–	Nts^b (no binding observed in thermal shift assays, i.e., compounds caused changes in the midpoint of protein unfolding (Tm) of less than 2 °C)	Nts^b (no binding observed in thermal shift assays, i.e., compounds caused changes in the midpoint of protein unfolding (Tm) of less than 2 °C)	Nts^b (no binding observed in thermal shift assays, i.e., compounds caused changes in the midpoint of protein unfolding (Tm) of less than 2 °C)	0.21	0.13	–	Kd (R6 (WP_185834821-LBD) [7]): 25 ± 5.2 µM; N value, R6 (R6 (WP_185834821-LBD) [7]; [11]): 0.35; Kd (R15 (WP_207952809-LBD) [3]; 25 °C, pH 7.0, read-out: Dissociation constant, R15): 37 ± 4 µM; N value, R15 (R15 (WP_207952809-LBD) [3]; One binding site model, * = hyperbolic curve): 0.70; Binding in thermal shift assay, R10 (R10 (WP_110129388-LBD); 2 mM ligand (Supplementary Fig. 7)): Tsa^c (binding observed in thermal shift assays, i.e., compounds caused changes in Tm of more than 2 °C); Binding in thermal shift assay, R11 (R11 (WP_162024566-LBD) [8]): Tsa^c (binding observed in thermal shift assays, i.e., compounds caused changes in Tm of more than 2 °C); Concentration causing high c-di-GMP levels ([9]; agar plates, wild-type R6 (VC2224)): 1 mM; Concentration at which colonies became wrinkly (onset of the response) ([9]; minimal medium agar plates, 24 h, 30 °C, wild-type R6): 100 µM
NC(=O)CC[C@H](N)C(=O)O [L-Gln]	–	–	–	–	–	–	–	–	–	–	did not produce any significant shift	–
N[C@@H](Cc1c[nH]c2ccccc12)C(=O)O [L-Trp]	–	–	–	–	–	–	–	–	–	–	did not produce any significant shift	–
